From publication PMC6405842, “Identification of a novel scaffold for a small molecule GPR139 receptor agonist” (Scientific Reports, 2019)
Where two headings read alike, the source gives them in different places.

How the values were obtained:
GPR139 [1] = biological target: T1, GPR139 (Homo sapiens, UniProt Q6DWJ6); assay: Phospho-ERK1/2 HTRF assay in CHO-GPR139 cells; type: cell-based; details: ERK phosphorylation; for pEC50 ± SEM / EC50: CHO-GPR139 cells; for EC50: 5 minute stimulation, read-out: EC50; for Emax ± SEM: expressed relative to FBS positive control
T1 construct: host or cells: CHO-k1
T1 sequence (Q6DWJ6 1-353): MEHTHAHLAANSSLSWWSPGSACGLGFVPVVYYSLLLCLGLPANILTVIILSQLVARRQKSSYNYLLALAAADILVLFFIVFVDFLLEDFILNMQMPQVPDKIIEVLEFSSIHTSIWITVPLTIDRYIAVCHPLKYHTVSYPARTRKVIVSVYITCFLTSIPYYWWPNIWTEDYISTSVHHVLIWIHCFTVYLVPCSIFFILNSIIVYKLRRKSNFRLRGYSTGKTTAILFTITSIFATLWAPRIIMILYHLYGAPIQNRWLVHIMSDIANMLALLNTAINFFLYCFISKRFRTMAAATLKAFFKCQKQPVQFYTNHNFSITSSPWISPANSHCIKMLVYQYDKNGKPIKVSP
Experimental: All compounds were tested on a CHO-k1 cell line stably expressing GPR139 (CHO-GPR139)[11] kindly provided by H. Lundbeck A/S, Denmark. GPR139-specific responses were assessed using a CHO-k1 cell line stably expressing the muscarinic acetylcholine receptor M1 (CHO-M1) (The Missouri S&T cDNA Resource Center, # CEM100TN00).
Phospho-ERK measurements were made using the Advanced Phospho-ERK1/2 (Thr202/Tyr204) HTRF kit by Cisbio (Codolet, France). Approximately 24 hours prior to the experiment, CHO-GPR139 cells were plated at 50,000 cells/well onto a 96-well plate and cultured as detailed above. Approximately 6 hours later, the media was aspirated, replaced with 50 μL serum-free media, and the cells were allowed to serum starve overnight. The day of the experiment, serial dilutions of the test compounds and controls were made in serum-free media at 2x final concentration. 50 μL of test compounds were added directly to the appropriate wells for 5 minute stimulation at 37 °C. At this point, the media and compounds were rapidly aspirated, lysis/blocking buffer was added, and cells were lysed on a shaker for 30 minutes at room temperature.
(§1) The Ca^2+ and ERK responses were normalized as indicated and the concentration response curves were fitted by Prism 6 software (GraphPad) using nonlinear regression in a sigmoidal model with variable slope, as has been previously described.

GPR139 [2] = biological target: T1, GPR139; assay: Fluo-4 calcium mobilization assay, agonist mode, concentration-response curves in CHO-GPR139 cells; type: cell-based; details: CHO-GPR139 cells; for EC50: at least three independent concentration-response curves in duplicate, read-out: EC50; for Emax ± S.E.M.: normalized to buffer (0%) and 8 μM 1a (100%)
Experimental: (§2) All compounds were tested on a CHO-k1 cell line stably expressing GPR139 (CHO-GPR139)[11] kindly provided by H. Lundbeck A/S, Denmark. GPR139-specific responses were assessed using a CHO-k1 cell line stably expressing the muscarinic acetylcholine receptor M1 (CHO-M1) (The Missouri S&T cDNA Resource Center, # CEM100TN00). The CHO-GPR139 cells were grown in Dulbecco’s modified Eagle’s medium (DMEM) F12-Kaighn’s (ThermoFisher Scientific # 21127) supplemented with 10% dialyzed fetal bovine serum (United States origin; ThermoFisher Scientific # 26400), 1% GlutaMAX-I (100X) (ThermoFisher Scientific # 35050061), and 100 units/mL penicillin and 100 µg/mL streptomycin (ThermoFisher Scientific # 15140122) and 1 mg/mL geneticin (ThermoFisher Scientific # 11811031). The CHO-M1 cells were grown in Ham’s F12 (ThermoFisher Scientific # 21765) supplemented with 10% fetal bovine serum (South American origin; ThermoFisher Scientific # 10270) + 100 units/mL penicillin and streptomycin and 0.25 mg/mL geneticin.
The Fluo-4 Ca^2+-assay was performed as described previously, with minor modifications. After 1 hour incubation with the Fluo-4 dye, the CHO-GPR139 cells were washed with 100 μL HEPES buffer (Hank’s Balanced Salt Solution (HBBS, ThermoFisher Scientific # 14175053) supplemented with 20 mM HEPES, 1 mM MgCl2, 1 mM CaCl2, pH = 7.4) and the compound library was then added in concentrations between 25–63 μM dissolved in HEPES buffer (supplemented with 2.5 mM probenecid and 1% DMSO) and pre-incubated for 10 min at 37 °C. 33 μL of 3.2 μM 1a were added automatically after baseline measurements. […] This set-up allowed us to identify both antagonists and agonists (Fig. 2).
Each compound, for which a concentration response curve was made, was tested at least three times in duplicate measurements. After the incubation with the Fluo-4 dye and a wash, 100 μL HEPES buffer (supplemented with 2.5 mM probenecid) was added to each well and incubated for 10 minutes at 37 °C before recording. 33 μL of compounds (4× concentrated) were added automatically after baseline measurements.
as §1

[3] = biological target: T2, muscarinic acetylcholine receptor M1 (Homo sapiens, UniProt P11229); assay: Calcium mobilization counter-screen in CHO-M1 cells; type: cell-based; details: concentration from which the calcium response is nonspecific
T2 construct: host or cells: CHO-k1
T2 sequence (P11229 1-460): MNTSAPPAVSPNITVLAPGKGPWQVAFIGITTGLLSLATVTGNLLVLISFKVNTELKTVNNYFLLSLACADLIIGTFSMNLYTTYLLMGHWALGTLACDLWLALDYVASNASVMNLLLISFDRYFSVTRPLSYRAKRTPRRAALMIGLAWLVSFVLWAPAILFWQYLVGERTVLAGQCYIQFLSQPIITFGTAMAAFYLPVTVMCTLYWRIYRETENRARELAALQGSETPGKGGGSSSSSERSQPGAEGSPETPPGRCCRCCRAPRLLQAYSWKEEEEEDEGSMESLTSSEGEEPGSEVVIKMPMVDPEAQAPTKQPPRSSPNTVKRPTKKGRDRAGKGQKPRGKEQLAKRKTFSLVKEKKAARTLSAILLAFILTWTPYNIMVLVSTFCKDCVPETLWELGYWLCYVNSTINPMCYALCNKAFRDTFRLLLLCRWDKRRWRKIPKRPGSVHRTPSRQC
Experimental: as §2
The primary screening of 4,000 diverse screening compounds on GPR139, led us to identify 108 initial actives in GPR139-expressing cells. […] We excluded compounds that had (1) an effect on another simultaneously tested GPCR (data not shown), (2) reactive groups, or (3) poor predicted solubility. 52 of the active compounds were re-purchased for validation, which were tested at three concentrations (100, 50 and 25 μM) using the same methodology as in the screening campaign. […] None of the 11 hits promoted calcium mobilization in the M1 receptor cells (data not shown). The 11 hits were then screened in pure agonist mode (i.e., without the presence of 1a) to evaluate if they were agonists or antagonists (Fig. 3 and Supplementary Table S1). All 11 hits were agonists.
When screening the compounds as antagonists they were pre-incubated for 10 min as in the HTS. 33 μL of 3.2 μM 1a on the CHO-GPR139 cells or 20 μM carbachol on the CHO-M1 cells were added automatically after baseline measurements.

GPR139 [4] = biological target: T1, GPR139; details: proposed endogenous GPR139 ligands; cited from earlier work

| pEC50 ± SEM (GPR139 [1]) | EC50 (GPR139 [1]) | Emax ± SEM (GPR139 [1]) | pEC50 ± S.E.M. (GPR139 [2]) | EC50 (GPR139 [2]) | Emax ± S.E.M. (GPR139 [2]) | Note: Nonspecific ≥ concentration [3] | Molecule | EC50 (GPR139 [4]) |
| --- | --- | --- | --- | --- | --- | --- | --- | --- |
| 7.65 ± 0.13 | 22 nM | 79.10 ± 3.19 | 7.02 ± 0.11 | 90 nM | 103 ± 1% |  | Cc1ccc(C(C)NC(=O)NCC(=O)NCC2CC2)cc1F (stereo not shown) [AC177] |  |
|  |  |  | 6.13 ± 0.14 | 740 nM | 104 ± 1% | Nonspecific ≥ 10 μM | CC(=O)c1c(C)[nH]c(C(=O)CN2C(=O)NC(C)(c3ccc4c(c3)OCCO4)C2=O)c1C (stereo not shown) [AC123] |  |
|  |  |  |  |  |  | Nonspecific ≥ 50 μM | CCCCC/C=C/C/C=C/CCCCCCCC(=O)NC(C)c1ccccc1 (stereo not shown) [AC223] |  |
|  |  |  |  |  |  |  | ACTH: adrenocorticotropic hormone, proposed endogenous GPR139 ligand (SYSMEHFRWGKPVGKKRRPVKVYPNGAEDESAEAFPLEF; Corticotropin; UniProt P01189 138-176, looked up) | 2100 nM |
|  |  |  | 6.05 ± 0.60 | 880 nM | 134 ± 26% | Nonspecific ≥ 30 μM | CC1Cc2ccccc2N1C(=O)CN1C(=O)NC(C)(c2ccc3c(c2)OCCO3)C1=O (stereo not shown) [AC208] |  |
|  |  |  | 6.09 ± 0.15 | 800 nM | 103 ± 5% | Nonspecific ≥ 40 μM | CC1(c2ccc3c(c2)OCO3)NC(=O)N(CC(=O)c2ccc(Cl)s2)C1=O (stereo not shown) [AC134] |  |
| 7.51 ± 0.28 | 31 nM | 69.37 ± 8.01 | 7.03 ± 0.02 | 90 nM | 106 ± 1% |  | COc1cc(OC)cc(C(=O)NN2C(=O)NC(C)(c3ccccc3)C2=O)c1 (stereo not shown) [AC224] |  |
| 7.41 ± 0.30 | 39 nM | 62.32 ± 6.66 | 6.68 ± 0.02 | 210 nM | 106 ± 4% |  | C=CCN(CC=C)C(=O)CN1C(=O)NC(C)(c2ccc3c(c2)OCCO3)C1=O (stereo not shown) [AC194] |  |
|  |  |  | 6.42 ± 0.06 | 380 nM | 94 ± 3% | Nonspecific ≥ 100 μM | CCc1cccc2c(C(=O)CN3C(=O)NC(C)(c4ccc5c(c4)OCO5)C3=O)c[nH]c12 (stereo not shown) [AC206] |  |
| 7.41 ± 0.25 | 39 nM | 64.38 ± 5.28 | 6.74 ± 0.19 | 180 nM | 110 ± 10% |  | CC(C)COCCCNC(=O)NC(C)c1ccc(Cl)cc1Cl (stereo not shown) [AC183] |  |

| Molecule | pEC50 ± SEM (GPR139 [1]) | EC50 (GPR139 [1]) | Emax ± SEM (GPR139 [1]) | pEC50 ± S.E.M. (GPR139 [2]) | EC50 (GPR139 [2]) | Emax ± S.E.M. (GPR139 [2]) | Note: Nonspecific ≥ concentration [3] | EC50 (GPR139 [4]) |
| --- | --- | --- | --- | --- | --- | --- | --- | --- |
| COc1cccc(C(=O)CN2C(=O)NC(C)(c3ccc(Cl)cc3)C2=O)c1 (stereo not shown) [AC225] |  |  |  | 6.56 ± 0.05 | 280 nM | 120 ± 5% | Nonspecific ≥ 10 μM |  |
